Reference: ChEMBL document CHEMBL1129706, “Z1046, a novel peripheral dopaminergic agent” (Bioorg Med Chem Lett, 1996)

How the values were obtained:
[1] = target: T1, Adrenergic receptor alpha-1 (Homo sapiens, UniProt P35348+P25100+P35368); assay: Activity at alpha-1 adrenergic receptor in rabbit aorta rings; type: tissue-based, Oryctolagus cuniculus; settings: target entry is the homologue from another species
T1 sequence (P35348 whole entry): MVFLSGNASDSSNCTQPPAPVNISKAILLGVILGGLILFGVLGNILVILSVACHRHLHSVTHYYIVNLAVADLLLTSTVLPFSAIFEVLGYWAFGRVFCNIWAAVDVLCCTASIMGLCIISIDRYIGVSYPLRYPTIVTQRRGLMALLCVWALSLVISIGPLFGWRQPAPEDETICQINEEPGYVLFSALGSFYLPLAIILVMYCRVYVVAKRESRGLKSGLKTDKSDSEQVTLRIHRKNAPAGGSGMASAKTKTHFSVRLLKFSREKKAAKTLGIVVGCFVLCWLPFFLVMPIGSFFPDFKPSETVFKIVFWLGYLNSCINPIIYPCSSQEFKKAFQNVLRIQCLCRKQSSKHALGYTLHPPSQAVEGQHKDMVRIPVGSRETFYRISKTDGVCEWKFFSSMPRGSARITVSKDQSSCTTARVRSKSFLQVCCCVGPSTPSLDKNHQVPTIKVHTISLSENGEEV
T1 sequence (P25100 whole entry): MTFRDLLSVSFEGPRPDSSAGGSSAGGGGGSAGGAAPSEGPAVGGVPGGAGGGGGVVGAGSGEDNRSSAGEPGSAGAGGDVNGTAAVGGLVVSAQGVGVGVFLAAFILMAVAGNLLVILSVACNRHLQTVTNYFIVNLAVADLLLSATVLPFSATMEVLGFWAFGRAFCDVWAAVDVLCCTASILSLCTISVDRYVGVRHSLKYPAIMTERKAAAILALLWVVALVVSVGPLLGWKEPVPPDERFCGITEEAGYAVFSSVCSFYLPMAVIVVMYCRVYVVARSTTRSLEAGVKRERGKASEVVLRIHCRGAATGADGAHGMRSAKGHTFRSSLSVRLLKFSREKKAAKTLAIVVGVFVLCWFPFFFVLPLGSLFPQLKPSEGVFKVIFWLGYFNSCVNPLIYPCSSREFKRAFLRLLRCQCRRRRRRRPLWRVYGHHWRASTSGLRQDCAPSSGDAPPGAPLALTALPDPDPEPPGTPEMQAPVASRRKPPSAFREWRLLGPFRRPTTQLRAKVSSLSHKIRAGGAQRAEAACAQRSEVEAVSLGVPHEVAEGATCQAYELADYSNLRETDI
T1 sequence (P35368 whole entry): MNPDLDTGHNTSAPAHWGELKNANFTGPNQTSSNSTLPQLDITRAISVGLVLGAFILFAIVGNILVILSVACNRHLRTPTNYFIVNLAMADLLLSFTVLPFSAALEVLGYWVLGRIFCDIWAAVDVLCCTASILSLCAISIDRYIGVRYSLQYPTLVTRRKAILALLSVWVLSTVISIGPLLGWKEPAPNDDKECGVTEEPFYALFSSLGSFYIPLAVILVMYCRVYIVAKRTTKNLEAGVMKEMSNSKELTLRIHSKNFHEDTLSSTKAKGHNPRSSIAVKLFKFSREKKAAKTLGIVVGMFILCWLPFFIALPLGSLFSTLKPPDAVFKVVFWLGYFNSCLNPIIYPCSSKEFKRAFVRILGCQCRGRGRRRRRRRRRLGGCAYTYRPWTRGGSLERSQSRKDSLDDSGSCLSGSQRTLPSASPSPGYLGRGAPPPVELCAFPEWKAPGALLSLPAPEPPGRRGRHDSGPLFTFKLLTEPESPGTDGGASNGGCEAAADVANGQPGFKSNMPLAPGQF

[2] = target: D(1A) dopamine receptor (Homo sapiens) (UniProt P21728); settings: Oryctolagus cuniculus
Description: Dopamine receptor D1 like evaluated for mesenteric blood flow increase in anesthetized rabbit

[3] = target: D(2) dopamine receptor (Homo sapiens) (UniProt P14416); settings: Oryctolagus cuniculus; Artery
Description: Activity at Dopamine receptor D2 in rabbit ear artery

[4] = target: Adrenergic receptor alpha-2 (Homo sapiens) (UniProt P08913+P18825+P18089); settings: Cavia porcellus; Cardiac atrium
Description: Alpha-2 adrenergic receptor activity in guinea pig right atrium

[5] = target: Adrenergic receptor alpha-1 (Homo sapiens) (UniProt P35348+P25100+P35368); settings: Oryctolagus cuniculus; Aorta

D(2) dopamine receptor (Homo sapiens), sequence (P14416 whole entry): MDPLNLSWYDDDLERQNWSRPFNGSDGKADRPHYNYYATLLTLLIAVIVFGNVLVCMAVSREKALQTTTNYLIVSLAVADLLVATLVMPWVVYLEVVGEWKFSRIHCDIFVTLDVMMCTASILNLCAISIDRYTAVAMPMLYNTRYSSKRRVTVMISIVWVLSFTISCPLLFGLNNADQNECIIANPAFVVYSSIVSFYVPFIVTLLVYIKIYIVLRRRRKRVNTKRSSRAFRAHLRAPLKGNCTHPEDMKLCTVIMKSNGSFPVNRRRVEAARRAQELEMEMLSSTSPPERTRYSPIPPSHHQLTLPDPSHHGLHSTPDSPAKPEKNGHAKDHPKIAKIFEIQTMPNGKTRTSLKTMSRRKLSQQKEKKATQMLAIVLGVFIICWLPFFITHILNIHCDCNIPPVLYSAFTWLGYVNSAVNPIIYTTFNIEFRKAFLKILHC
D(1A) dopamine receptor (Homo sapiens), sequence (P21728 whole entry): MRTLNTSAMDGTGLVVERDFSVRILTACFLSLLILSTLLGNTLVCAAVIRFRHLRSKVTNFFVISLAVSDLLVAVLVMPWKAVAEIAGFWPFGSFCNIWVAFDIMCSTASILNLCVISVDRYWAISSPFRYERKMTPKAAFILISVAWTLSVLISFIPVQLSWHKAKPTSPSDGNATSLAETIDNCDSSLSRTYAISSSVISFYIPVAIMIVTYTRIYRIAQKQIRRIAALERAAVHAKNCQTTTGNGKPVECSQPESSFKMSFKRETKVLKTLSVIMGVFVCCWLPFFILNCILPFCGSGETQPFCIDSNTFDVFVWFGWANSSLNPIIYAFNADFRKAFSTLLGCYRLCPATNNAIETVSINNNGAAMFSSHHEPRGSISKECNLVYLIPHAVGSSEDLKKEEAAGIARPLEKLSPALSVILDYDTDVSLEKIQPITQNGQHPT

Compound	pA2 [1]	ED20 [2]	pD2 [3]	pD2 [4]	pD2 [5]
CCCN(CCCCCCNCCOc1ccccc1OC)[C@H]1CCc2c(ccc(O)c2O)C1	6.5	13 nM/kg	9	6.7	–
CCCN(CCCCCCCNCCOc1ccccc1OC)[C@H]1CCc2c(ccc(O)c2O)C1	6.8	35 nM/kg	8.4	5.7	–
CCCN(CCCCCNCCOc1ccccc1OC)[C@H]1CCc2c(ccc(O)c2O)C1	6.5	107 nM/kg	8.7	6.5	–
CCCN(CCCCCCNCCOc1ccccc1OC)CCc1ccc(O)c(O)c1	6.5	> 3000 nM/kg	7.56	< 5	–

Second part, the molecule after the results:

pA2 [1]	ED20 [2]	pD2 [3]	pD2 [4]	pD2 [5]	Compound
< 5	407 nM/kg	7.4	6	–	CCCN(CCCCCCN(CCC)[C@H]1CCc2c(ccc(O)c2O)C1)CCOc1ccccc1OC
–	–	–	–	6.5	CNC[C@H](O)c1cccc(O)c1
6.9	1050 nM/kg	6.5	< 5	–	CCCN(CCCCCCNCCOc1ccccc1OC)[C@@H]1CCc2c(ccc(O)c2O)C1
< 5	34 nM/kg	8.5	6.9	–	CCCN(CCCCCCN(C)CCOc1ccccc1OC)[C@H]1CCc2c(ccc(O)c2O)C1
6.6	60 nM/kg	7.5	< 5	–	CCCCN(CCCCCCNCCOc1ccccc1OC)[C@H]1CCc2c(ccc(O)c2O)C1
7.1	> 3000 nM/kg	6.5	< 5	–	COc1ccccc1OCCNCCCCCCN[C@H]1CCc2c(ccc(O)c2O)C1
